The subject of experiment [1] is rat hippocampal astrocytes. As to the kind of experiment: [3H]D-serine transport into primary cultures of rat hippocampal astrocytes. The format is cell-based. The note with it: Astrocyte; inhibition of [3H]D-serine transport, rat hippocampal astrocytes; means of at least two determinations.
The target of another experiment is T1, human ASCT2 (Homo sapiens, UniProt Q15758).
T1 construct: expressed in transfected cells; host or cells: HEK (human embryonic kidney) cells
T1 sequence (Q15758 1-541): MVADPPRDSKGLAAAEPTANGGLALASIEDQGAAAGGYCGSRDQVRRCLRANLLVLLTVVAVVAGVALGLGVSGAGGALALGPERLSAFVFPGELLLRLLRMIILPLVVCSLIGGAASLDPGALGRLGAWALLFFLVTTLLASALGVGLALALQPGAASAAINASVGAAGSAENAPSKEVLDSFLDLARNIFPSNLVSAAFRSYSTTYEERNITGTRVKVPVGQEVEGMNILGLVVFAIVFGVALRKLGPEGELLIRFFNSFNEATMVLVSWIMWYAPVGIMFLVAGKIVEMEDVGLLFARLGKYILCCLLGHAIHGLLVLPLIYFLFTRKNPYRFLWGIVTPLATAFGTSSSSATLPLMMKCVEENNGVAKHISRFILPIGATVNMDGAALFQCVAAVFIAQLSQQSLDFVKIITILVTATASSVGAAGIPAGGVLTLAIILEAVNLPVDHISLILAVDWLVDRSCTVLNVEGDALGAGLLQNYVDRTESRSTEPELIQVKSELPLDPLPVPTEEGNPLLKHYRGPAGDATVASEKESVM
The experiment in a line: transport into HEK cells expressing ASCT2. The format is cell-based. As for the experimental part: Cell-based assays: the transport of [^3H]L- or D-serine was measured in primary cultures of rat hippocampal astrocytes or in human embryonic kidney (HEK) cells expressing ASCT transporter sub-types. For the astrocyte assays, cells were plated on either 24- or 96-well plates at a density of 50,000 cells per well. For the HEK assays, cells were plated on coated 96-well plates at a density of 80,000 cells/well. Assays were conducted in duplicate at room temperature in assay buffer consisting of: NaCl: 150 mM, KCl: 2 mM; MgCl2: 1 mM; CaCl2: 1 mM; HEPES: Tris buffer: 10 mM, pH7.4. To assess the sodium-dependence of transport, NaCl was replaced in the assay buffer by equimolar choline chloride. Following aspiration of growth medium and 2 washes with assay buffer, cells were incubated with [^3H]L- or D-serine at a final concentration of 1 μM for 5 min (astrocytes) or 1 min (HEK cells), after which the incubation medium was aspirated and the cells washed twice with ice-cold assay buffer. Cells containing radiolabel were solubilized in 100 μl of 1% Triton-X100 and an aliquot counted in a beta counter. IC50 values were determined over a range of at least 6 concentrations and derived from curve-fitting algorithms available in GraphPad Prism 4.

Experiment [2] relates to amphetamine-induced hyperlocomotion. The note with it: systemic administration; Smith et al, 2009; cited from earlier work.
Experiment [3] has as its system amphetamine-induced hyperlocomotion in mice. The experiment in a line: amphetamine induced hyperactivity. The note with it: systemic administration, amphetamine 2 mg/kg s.c. Type of experiment: in vivo. As for the experimental part: C57B/6 male mice (n=5-10/group) were placed in an open field apparatus and their activity was measured for 30 minutes. At 30 minutes, they received a vehicle injection or injection of test compound followed by an injection of amphetamine (2 mg/kg, s.c.) at minute 45. Their activity levels were subsequently measured for another 1 hour post-injection. Total activity for each 5 minute bin (21 total bins) was added to establish the activity curve over the 105 minute testing.

Experiment [4] has as its system long-term potentiation (LTP) in the primary visual cortex. As to the kind of experiment: long term potentiation in primary visual cortex slices. On the set-up: species or system rat. As for the experimental part:
Long Term Potentiation (LTP) in primary visual cortex has been used as a cellular model for visual cortex plasticity and has functional consequences on visual evoked responses. NMDA receptors play a critical role in visual cortex LTP induction.
Following decapitation of the rat, the brain was rapidly removed and immersed in ice-cold artificial cerebrospinal fluid (ACSF) containing 124 mM NaCl, 3 mM KCl, 1.25 mM KH2PO4, 3.4 mM CaCl2, 2.5 mM MgSO4, 26 mM NaHCO3, and 10 mM D-glucose. A block of visual cortex was created by removing the frontal ⅔ portion of the brain and the cerebellum. Coronal visual cortex slices of 375 μm were prepared from adult Sprague Dawley (SD) rats using a vibratome (VT 1000 S; Leica). The slices were maintained in an interface recording chamber perfused with preheated ACSF. Slices were continuously perfused with this solution at a rate of 1.00-1.50 ml/min while the surface of the slices was exposed to warm, humidified 95% O2/5% CO2 and maintained at 31±1° C. Visual cortex slices were allowed to recover for 1 hr before recording began. […] This was repeated 2 additional times with a 1 minute intertrain interval, and the level of LTP was recorded for at least 30 min. Changes in amplitude of the synaptic response were used to measure the extent of LTP because it was determined to be the more consistent parameter than the slope of the response. […]

Molecules are shown by their SMILES. pIC50: −log10 of the molar value.

The term pIC50 denotes −log10 of the IC50, conventionally taken in molar units. Higher therefore signals a low IC50.

`N[C@H](CO)C(=O)O` [D-serine] gave a pIC50 in experiment [1] of 2.80. The “inhibition of [3H]L-serine transport in ASCT2-expressing HEK cells” value against human ASCT2 was “completely inhibited”. Further, in experiment [2], the “effect on amphetamine-induced hyperlocomotion (literature)” value is given as “reduce amphetamine-induced hyperlocomotion”.

On to `N[C@H](C(=O)O)c1ccc(O)cc1` [L-4-hydroxyphenylglycine], for which the “effect on amphetamine-induced hyperactivity/hyperlocomotion” value in experiment [3] is “reduced amphetamine-induced hyperactivity in a dose-dependent manner”. Further, in experiment [4] (0.2 unit/ml DAAO), the “effect on LTP with D-AAO in the perfusion medium” value is recorded as “completely prevented”. For the same compound, the “effect on LTP evoked by theta burst stimulation in visual cortex slice” value in experiment [4] (rat visual cortex slice) is reported as “enhanced LTP in a concentration-dependent manner”.
